The text below walks through data of US12161647B2, “Treating hearing loss” (Massachusetts Eye and Ear Infirmary, priority 2012, dated 2024).

Format in all cases: in vivo, mouse
One experiment concerns noise-damaged cochlea. Put plainly: ABR after systemic LY411575 in noise-damaged mice. Here is the method:
(§1) 4-week-old mice were exposed free-field, awake and unrestrained, in a small reverberant chamber (22). Acoustic trauma was produced by a 2 h exposure to an 8-16 kHz octave band noise presented at 116 dB SPL. The exposure stimulus was generated by a custom white-noise source, filtered (Brickwall Filter with a 60 dB/octave slope), amplified (Crown power amplifier), and delivered (JBL compression driver) through an exponential horn fitted securely to a hole in the top of a reverberant box.
[…] Hearing was measured by ABR at 1 d before, 2 d, 1, 2 week, 1, 2 and 3 months after noise exposure.
Mice were anesthetized with ketamine (100 mg/kg i.p.) and xylazine (20 mg/kg i.p.). Needle electrodes were inserted at vertex and pinna, with a ground near the tail. ABRs were evoked with 5-ms tone pips (0.5-ms rise-fall with a cos^2 onset envelope delivered at 35/s). The response was amplified, filtered and averaged in a LabVIEW-driven data-acquisition system. Sound level was raised in 5 dB steps from ≥10 dB below threshold <80 dB SPL. At each sound level, 1024 responses were averaged (with stimulus polarity alternated), using an “artifact reject,” whereby response waveforms were discarded when peak-to-peak response amplitude exceeded 15 μV. […] For amplitude versus level functions, the wave I peak was identified by visual inspection at each sound level and the peak-to-peak amplitude computed.

The next experiment has as its system Hes5 mRNA. Nature of the experiment: qRT-PCR of Hes5 in deafened mature cochlea after round window administration. Here is the method:
as §1
(§2) 4-week-old mice weighing 12 to 16 g were used. Before surgery, the animals were anesthetized with ketamine (20 mg/kg, i.p.) and xylazine (100 mg/kg, i.p.), and an incision was made posterior to the pinna near the external meatus after local administration of lidocaine (1%). […]
(§3) The organs of Corti were dissected in HBSS (Invitrogen) and stored in RNAlater (Ambion) at −80° C. until further use. […] Samples were analyzed in 96 wells in triplicate by qPCR (Applied Biosystems 7900HT), and PCR thermal cycling conditions were as follows: initial denaturation at 95° C. for 2 min, denaturation at 95° C. for 15 s, annealing/extension at 60° C. for 1 min for 45 cycles. […] Relative gene expression was analyzed by using the ΔΔCT method. Gene expression was calculated relative to 18S RNA, and the amount of cDNA applied was adjusted so that the Ct value for 18S RNA was between 8 and 11. […]

The next experiment deals with Atoh1 mRNA. Nature of the experiment: qRT-PCR of Atoh1 in deafened mature cochlea after round window administration. As to the method: as §1, §2, §3

`C[C@H](NC(=O)[C@@H](O)c1cc(F)cc(F)c1)C(=O)N[C@@H]1C(=O)N(C)c2ccccc2-c2ccccc21` [LY411575, N-2((2S)-2-(3,5-difluorophenyl)-2-hydroxyethanoyl)-N1-((7S)-5-methyl-6-oxo-6,7-dihydro-5H-dibenzo[b,d]azepin-7-yl)-l-alaninamide]: the “therapeutic benefit at lower dose” value in the experiment on noise-damaged cochlea (10 mg/kg body weight) is recorded as “no therapeutic benefit”. Moreover, in the experiment with noise-damaged cochlea (oral 50 mg/kg for 5 d, 4, 8 and 16 kHz), the “noise-induced ABR threshold shift” value is “decreased”. Further, in the experiment on Hes5 mRNA (round window niche, 4 mM 1 μl, 1 d after noise, at 1 d, p<0.01 vs control cochlea), the “noise-induced Hes5 mRNA induction” value was “completely blocked”. In addition, the Hes5 expression level entry with Hes5 mRNA (three days after LY411575 treatment) is reported as “unchanged from the control cochlea”. For the same compound, the “Atoh1 expression above the level post-noise exposure” value in the experiment with Atoh1 mRNA (1 d after LY411575 treatment, round window niche) stood at 2.28 ×. Besides, in the experiment on Atoh1 mRNA (3 d after treatment, p<0.05), the Atoh1 expression entry is recorded as “remained elevated”.
